Read-outs that look alike come from different tables or passages of the source.
Assays:
BxPC-3 = test: Inhibition test on cell proliferation (MTT), BxPC-3; type: cell-based, human; conditions: read-out: IC50 (nM) BxPC-3
Description: (§1) Tumor cells (NCI-H460, BxPC-3, HT-29, HCC-LM3) in the logarithmic growth phase were digested, centrifuged, and the supernatants were removed. Cells were resuspended by adding fresh culture medium, and counted using a cell counting plate. 100 μL of culture medium (containing cells) was added to a 96-well plate according to the standard of 2000 to 6000 cells per well and incubated in an incubator (37° C., 5% CO2) for 24 hours. After the cells were completely adhered to the wall, the test sample and Plinabulin were diluted to different concentrations using fresh culture medium, and 4 wells were set for each concentration. After 72 hours of drug treatment, the culture medium was removed, and 20 μL of MTT at a concentration of 5 mg/mL was added to each well. After 3-4 hours in the incubator, the MTT was discarded, and 100 μL of DMSO was added to each well, and placed in a 96-well plate shaker to completely dissolve the purple formazan. Subsequently, the absorbance (OD value) was detected at a wavelength of 490 nm using a microplate reader. The experiment also required setting up zero-setting wells (blank culture medium, MTT, DMSO). Cell inhibition rate=1−(OD value of drug-dosed group−OD value of zero-setting group)/(OD value of blank group−OD value of zero-setting group)×100%.

NCI-H460 = test: Inhibition test on cell proliferation (MTT), NCI-H460; type: cell-based, human
Description: as §1

[1] = Homo sapiens, BXPC-3, 72 h, 72 hours of drug treatment, MTT
[2] = Homo sapiens, NCI-H460, 72 h, 72 hours of drug treatment, MTT, read-out: IC50 (nM) NCI-H460
[3] = Homo sapiens, NCI-H460, 72 h, read-out: IC50 (nM) NCI-H460, 72 hours of drug treatment, MTT

| IC50 (BxPC-3; [1]) [nM] | IC50 (NCI-H460; [2]) [nM] | SMILES | also measured |
| --- | --- | --- | --- |
| 2.3 ± 0.08 | 3.98 ± 0.33 | CC(=O)N1CCN(CCCn2cnc(/C=c3\[nH]c(=O)/c(=C/c4cccc(C(=O)c5ccc(F)cc5)c4)[nH]c3=O)c2C(C)C)CC1 [PLN-2-30, (3Z,6Z)-3-(3-(p-fluorobenzoyl)phenyl)methylene-6-((5-isopropyl-1-(3-N-acetylpiperazinyl)propylimidazol-4-yl)methylene)piperazine-2,5-dione] |  |
|  | 158 ± 25.7 | CN1CCN(CCCn2cnc(/C=c3\[nH]c(=O)/c(=C/c4cccc(Oc5ccc(F)cc5)c4)[nH]c3=O)c2C2CC2)CC1 [PLN-2-23] |  |
| 66.2 ± 1.45 | 85.7 ± 10.6 | CC(C)c1c(/C=c2\[nH]c(=O)/c(=C/c3cccc(Oc4ccc(F)cc4)c3)[nH]c2=O)ncn1CCCN1CCN(C)CC1 [PLN-2-22, (3Z,6Z)-3-(3-(p-fluorophenoxy)phenyl)methylene-6-((5-isopropyl-1-(3-N-methylpiperazinyl)propylimidazol-4-yl)methylene)piperazine-2,5-dione] |  |
|  |  | O=c1[nH]/c(=C\c2ncn(CCCN3CCNCC3)c2C2CC2)c(=O)[nH]/c1=C\c1cccc(Oc2ccc(F)cc2)c1 [PLN-2-19-1] | IC50 (NCI-H460; read-out: IC50 (nM) NCI-H460, 72 hours of drug treatment, MTT): 204 ± 4.24 nM |
|  |  | CC(C)c1c(/C=c2\[nH]c(=O)/c(=C/c3cccc(C(=O)c4ccc(F)cc4)c3)[nH]c2=O)ncn1CCCN1CCN(S(C)(=O)=O)CC1 [PLN-2-42, (3Z,6Z)-3-(3-(p-fluorobenzoyl)phenyl)methylene-6-((5-isopropyl-1-(3-N-methylsulfonylpiperazinyl)propylimidazol-4-yl)methylene)piperazine-2,5-dione] | IC50 (BxPC-3; Homo sapiens, BXPC-3, 72 h): 3.38 ± 0.53 nM; IC50 (NCI-H460; [3]): 6.59 ± 1.29 nM |
|  | 18.4 ± 2.95 | CC(C)c1c(/C=c2\[nH]c(=O)/c(=C/c3cccc(C(=O)c4ccc(F)cc4)c3)[nH]c2=O)ncn1CCCN1CCN(Cc2ccccc2)CC1 [PLN-2-25, (3Z,6Z)-3-(3-(p-fluorobenzoyl)phenyl)methylene-6-((5-isopropyl-1-(3-N-benzylpiperazinyl)propylimidazol-4-yl)methylene)piperazine-2,5-dione] |  |
|  |  | O=c1[nH]/c(=C\c2ncn(CCCN3CCNCC3)c2C2CC2)c(=O)[nH]/c1=C\c1cccc(Oc2ccc(F)cc2)c1 [PLN-2-19] | IC50 (NCI-H460; [3]): 213 ± 12.8 nM |
| 3.25 ± 2.13 | 5.55 ± 1.68 | CC(C)c1c(/C=c2\[nH]c(=O)/c(=C/c3cccc(C(=O)c4ccc(F)cc4)c3)[nH]c2=O)ncn1CCCN1CCN(C(=O)c2ccccc2)CC1 [PLN-2-41, (3Z,6Z)-3-(3-(p-fluorobenzoyl)phenyl)methylene-6-((5-isopropyl-1-(3-N-benzoylpiperazinyl)propylimidazol-4-yl)methylene)piperazine-2,5-dione] |  |
|  |  | CC(C)c1c(/C=c2\[nH]c(=O)/c(=C/c3cccc(C(=O)c4ccc(F)cc4)c3)[nH]c2=O)ncn1CCCN1CCN(C(=O)C2CCCC2)CC1 [PLN-2-37, (3Z,6Z)-3-(3-(p-fluorobenzoyl)phenyl)methylene-6-((5-isopropyl-1-(3-N-cyclopentnecarbonylpiperazinyl)propylimidazol-4-yl)methylene)piperazine-2,5-dione] | IC50 (BxPC-3; Homo sapiens, BXPC-3, 72 h): 6.23 ± 0.15 nM; IC50 (NCI-H460; [3]): 7.86 ± 1.37 nM |
| 17.5 ± 0.27 | 20.1 ± 3.67 | CCC(CC)C(=O)N1CCN(CCCn2cnc(/C=c3\[nH]c(=O)/c(=C/c4cccc(C(=O)c5ccc(F)cc5)c4)[nH]c3=O)c2C(C)C)CC1 [PLN-2-34, (3Z,6Z)-3-(3-(p-fluorobenzoyl)phenyl)methylene-6-((5-isopropyl-1-(3-N-(2-ethylbutyryl)piperazinyl)propylimidazol-4-yl)methylene)piperazine-2,5-dione] |  |
| 1.79 ± 0.49 | 6.43 ± 1.98 | CC(C)c1c(/C=c2\[nH]c(=O)/c(=C/c3cccc(C(=O)c4ccc(F)cc4)c3)[nH]c2=O)ncn1CCCN1CCN(C(=O)NC(C)(C)C)CC1 [PLN-2-45, (3Z,6Z)-3-(3-(p-Fluorobenzoyl)phenyl)methylene-6-((5-isopropyl-1-(3-N-tert-butylaminocarbonylpiperazinyl)propylimidazol-4-yl)methylene)piperazine-2,5-dione] |  |
| 1.4 ± 0.04 | 3.46 ± 0.25 | CC(C)c1c(/C=c2\[nH]c(=O)/c(=C/c3cccc(C(=O)c4ccc(F)cc4)c3)[nH]c2=O)ncn1CCCN1CCN(C=O)CC1 [PLN-2-29, (3Z,6Z)-3-(3-(p-fluorobenzoyl)phenyl)methylene-6-((5-isopropyl-1-(3-N-formylpiperazinyl)propylimidazol-4-yl)methylene)piperazine-2,5-dione] |  |
| 4.16 ± 0.78 | 7.95 ± 1.29 | CC(C)C(=O)N1CCN(CCCn2cnc(/C=c3\[nH]c(=O)/c(=C/c4cccc(C(=O)c5ccc(F)cc5)c4)[nH]c3=O)c2C(C)C)CC1 [PLN-2-32, (3Z,6Z)-3-(3-(p-fluorobenzoyl)phenyl)methylene-6-((5-isopropyl-1-(3-N-isobutyrylpiperazinyl)propylimidazol-4-yl)methylene)piperazine-2,5-dione] |  |
| 33.1 ± 0.98 | 39.2 ± 1.85 | CC(C)c1c(/C=c2\[nH]c(=O)/c(=C/c3cc(F)ccc3F)[nH]c2=O)ncn1CCCN1CCN(C(=O)OC(C)(C)C)CC1 [PLN-2-48] |  |
|  | 50.1 ± 0.69 | CC(C)c1c(/C=c2\[nH]c(=O)/c(=C/c3cccc(C(=O)c4ccc(F)cc4)c3)[nH]c2=O)ncn1CCCN1CCN(c2ccc(F)cc2)CC1 [PLN-2-26, (3Z,6Z)-3-(3-(p-fluorobenzoyl)phenyl)methylene-6-((5-isopropyl-1-(3-N-(p-fluorophenyl)piperazinyl)propylimidazol-4-yl)methylene)piperazine-2,5-dione] |  |
| 91.63 ± 0.62 | 147 ± 14.5 | CC(C)c1c(/C=c2\[nH]c(=O)/c(=C/c3cc(F)ccc3F)[nH]c2=O)ncn1CCCN1CCNCC1 [PLN-2-20, (3Z,6Z)-3-(2,5-difluorophenyl)methylene-6-((5-isopropyl-1-(3-piperazinyl)propylimidazol-4-yl)methylene)piperazine-2,5-dione] |  |
|  |  | CC1CN(CCCn2cnc(/C=c3\[nH]c(=O)/c(=C/c4cccc(C(=O)c5ccc(F)cc5)c4)[nH]c3=O)c2C(C)C)CC(C)O1 (stereo not shown) [PLN-2-13, (3Z,6Z)-3-(3-(p-fluorobenzoyl)phenyl)methylene-6-((5-isopropyl-1-((2,6-dimethyl)-3-morpholinyl)propylimidazol-4-yl)methylene)piperazine-2,5-dione] | IC50 (BxPC-3; 72 hours of drug treatment, MTT): 14.9 ± 2.62 nM; IC50 (NCI-H460; 72 hours of drug treatment, MTT, read-out: IC50 (nM) NCI-H460): 8.2 ± 0.54 nM |
|  | 234 ± 25.7 | CC(C)c1c(/C=c2\[nH]c(=O)/c(=C/c3ccc(F)cc3)[nH]c2=O)ncn1CCCN1CCOCC1 [PLN-2-11, (3Z,6Z)-3-p-fluorobenzylidene-6-((5-isopropyl-1-(−3-morpholinyl)propylimidazol-4-yl)methylene)piperazine-2,5-dione] |  |
|  |  | CC(C)c1c(/C=c2\[nH]c(=O)/c(=C/c3cccc(C(=O)c4ccc(F)cc4)c3)[nH]c2=O)ncn1CCCN1CCN(C(=O)C23CC4CC(CC(C4)C2)C3)CC1 [PLN-2-39, (3Z,6Z)-3-(3-(p-fluorobenzoyl)phenyl)methylene-6-((5-isopropyl-1-(3-N-adamantanecarbonylpiperazinyl)propylimidazol-4-yl)methylene)piperazine-2,5-dione] | IC50 (NCI-H460; [3]): 37.2 ± 3.61 nM |
|  | 7.3 ± 0.44 | CC(C)c1c(/C=c2\[nH]c(=O)/c(=C/c3cccc(C(=O)c4ccc(F)cc4)c3)[nH]c2=O)ncn1CCCN1CCN(C(=O)C2CCCCC2)CC1 [PLN-2-38, (3Z,6Z)-3-(3-(p-fluorobenzoyl)phenyl)methylene-6-((5-isopropyl-1-(3-N-cyclohexanecarbonylpiperazinyl)propylimidazol-4-yl)methylene)piperazine-2,5-dione] |  |
|  | 11.1 ± 0.9 | CC(C)c1c(/C=c2\[nH]c(=O)/c(=C/c3cccc(C(=O)c4ccc(F)cc4)c3)[nH]c2=O)ncn1CCCN1CCN(S(=O)(=O)c2ccccc2)CC1 [PLN-2-43, (3Z,6Z)-3-(3-(p-fluorobenzoyl)phenyl)methylene-6-((5-isopropyl-1-(3-N-phenylmethylsulfonylpiperazinyl)propylimidazol-4-yl)methylene)piperazine-2,5-dione] |  |

| SMILES | IC50 (BxPC-3; [1]) [nM] | IC50 (NCI-H460; [2]) [nM] | also measured |
| --- | --- | --- | --- |
| CC(C)c1c(/C=c2\[nH]c(=O)/c(=C/c3cccc(Oc4ccc(F)cc4)c3)[nH]c2=O)ncn1CCCN1CCN(C(=O)OC(C)(C)C)CC1 [PLN-2-17, (3Z,6Z)-3-(3-(4-Fluorophenoxy)phenyl)methylene-6-((5-isopropyl-1-(3-N-tert-butoxycarbonylpiperazinyl)propylimidazol-4-yl)methylene)piperazine-2,5-dione] | 21.1 ± 2.41 | 41.8 ± 2.27 |  |
| CC(C)c1c(/C=c2\[nH]c(=O)/c(=C/c3cccc(C(=O)c4ccc(F)cc4)c3)[nH]c2=O)ncn1CCCN1CCN(C(=O)OC(C)(C)C)CC1 [PLN-2-15, (3Z,6Z)-3-(3-(p-fluorobenzoyl)phenyl)methylene-6-((5-isopropyl-1-(3-N-tert-butoxycarbonylpiperazinyl)propylimidazol-4-yl)methylene)piperazine-2,5-dione] | 6.77 ± 0.08 | 8.01 ± 1.24 |  |

— patent US20240140941A1, “DERIVATIVE OF 2,5-DIKETOPIPERAZINE COMPOUND, AND PREPARATION METHOD THEREFOR, PHARMACEUTICAL COMPOSITION THEREOF AND USE THEREOF” (DALIAN WZ PROBIOTICS AD HEALTH CO., LTD, priority 2020, published 2024)
